The source of these data is PubChem BioAssay AID1259411 (Chemical Carcinogenesis Research Information System (CCRIS), 2018).

The structures appear in SMILES notation. The source made the active and inactive calls. No rule for the calls is given here.

This data set relates to rodent carcinogenicity bioassays, tumor incidence. The data set is described as follows: CCRIS carcinogenicity studies. Summed up:
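NCI-built, expert-reviewed records of carcinogenicity and related test outcomes (mutagenicity, tumor promotion/inhibition) compiled from published and report sources, historical span 1985-2011, not updated.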

As to `CCN(Cc1cccc(S(=O)(=O)[O-])c1)c1ccc(C(=C2C=CC(=[N+](C)C)C=C2)c2ccc(N(CC)Cc3cccc(S(=O)(=O)O)c3)cc2)cc1`, the carcinogen call is, setting by setting: (Species: MOUSE, Strain/Sex: SWISS-WEBSTER/FEMALE, Route: DERMAL, Dose: 0, 1% IN 0.1 ML DISTILLED WATER 1/WK FOR 18 MO (STUDY DURATION: 18 MO)) “inactive; negative”; (Species: MOUSE, Strain/Sex: SWISS-WEBSTER/MALE, Route: DERMAL, Dose: 0, 1% IN 0.1 ML DISTILLED WATER 1/WK FOR 18 MO (STUDY DURATION: 18 MO)) “inactive; negative”; (Species: RAT, Route: ORAL, Tumor Site: Type of Lesion: MAMMARY GLAND, INTEGUMENTARY SYSTEM (SKIN)) “active; positive”; (Species: RAT, Route: SUBCUTANEOUS, Tumor Site: Type of Lesion: INJECTION SITE) “active; positive”.
For `CCCCCN(CCCCC)N=O`, the carcinogen call runs as follows: (Species: RAT, Strain/Sex: WISTAR/FEMALE, Route: SUBCUTANEOUS, Dose: 0, 62.5, 125, 250 MG/KG BW 1/WK FOR 25 WK (STUDY DURATION: 1 YR), Dose: 0, 62.5, 125, 250 MG/KG BW 1/WK FOR 25 WK (STUDY DURATION: 1 YR), Tumor Site: Type of Lesion: NASAL CAVITY: POLYPOID ADENOMA, LUNG: BRONCHIOALVEOLAR ADENOMA) “active; positive”; (Species: RAT, Strain/Sex: WISTAR/MALE, Route: SUBCUTANEOUS, Dose: 0, 62.5, 125, 250 MG/KG BW 1/WK FOR 25 WK (STUDY DURATION: 1 YR), Dose: 0, 62.5, 125, 250 MG/KG BW 1/WK FOR 25 WK (STUDY DURATION: 1 YR), Tumor Site: Type of Lesion: NASAL CAVITY: POLYPOID ADENOMA, LUNG: BRONCHIOALVEOLAR ADENOCARCINOMA, BRONCHIOALVEOLAR ADENOMA) “active; positive”.
Regarding `N[C@@H](CC(=O)O)C(=O)O`, the carcinogen call reads like this: (Species: RAT, Strain/Sex: F344/FEMALE, Route: ORAL, Dose: 0, 2.5, 5% IN DRINKING WATER FOR 100 WK (STUDY DURATION: 100 WK), Dose: 0, 2.5, 5% IN DRINKING WATER FOR 100 WK (STUDY DURATION: 100 WK)) “inactive; negative”; (Species: RAT, Strain/Sex: F344/MALE, Route: ORAL, Dose: 0, 2.5, 5% IN DRINKING WATER FOR 100 WK (STUDY DURATION: 100 WK), Dose: 0, 2.5, 5% IN DRINKING WATER FOR 100 WK (STUDY DURATION: 100 WK)) “inactive; negative”.
For `CCOP(=S)(OCC)SCCSCC`, the carcinogen call runs as follows: (Species: Mouse, Strain/Sex: CD/Female (60/Group with 10 used as replacements), Route: Oral, Dose: 0, 1, 4, 16 ppm 98.2% disulfoton in diet for 99 wks, study duration 99 wks, Dose: 0, 1, 4, 16 ppm 98.2% disulfoton in diet for 99 wks, study duration 99 wks) “inactive; negative”; (Species: Mouse, Strain/Sex: CD/Male (60/Group with 10 used as replacements), Route: Oral, Dose: 0, 1, 4, 16 ppm 98.2% disulfoton in diet for 99 wks, study duration 99 wks, Dose: 0, 1, 4, 16 ppm 98.2% disulfoton in diet for 99 wks, study duration 99 wks) “inactive; negative”; (Species: Rat, Strain/Sex: F344/Female (50/Group), Route: Oral, Dose: 0, 1, 4, 16 ppm 97.6% disulfoton in diet for 105 wks, study duration 105 wks, Dose: 0, 1, 4, 16 ppm 97.6% disulfoton in diet for 105 wks, study duration 105 wks) “inactive; negative”; (Species: Rat, Strain/Sex: F344/Male (50/Group), Route: Oral, Dose: 0, 1, 4, 16 ppm 97.6% disulfoton in diet for 105 wks, study duration 105 wks, Dose: 0, 1, 4, 16 ppm 97.6% disulfoton in diet for 105 wks, study duration 105 wks) “inactive; negative”.
Consider `O=NN(c1ccccc1)c1ccccc1`, for which the carcinogen call was “inactive; negative” (Species: MOUSE, Strain/Sex: B6C3F1/FEMALE, Route: ORAL, Dose: 0, 2315, 5741 PPM IN DIET, TWA, Dose: 0, 2315, 5741 PPM IN DIET, TWA); “inactive; negative” (Species: MOUSE, Strain/Sex: B6C3F1/MALE, Route: ORAL, Dose: 0, 10000, 20000 PPM IN DIET, Dose: 0, 10000, 20000 PPM IN DIET); “active; positive” (Species: RAT, Strain/Sex: F344/FEMALE, Route: ORAL, Dose: 0, 1000, 4000 PPM IN DIET, Dose: 0, 1000, 4000 PPM IN DIET, Tumor Site: Type of Lesion: URINARY BLADDER: TRANSITIONAL CELL CARCINOMA); “active; positive” (Species: RAT, Strain/Sex: F344/MALE, Route: ORAL, Dose: 0, 1000, 4000 PPM IN DIET, Dose: 0, 1000, 4000 PPM IN DIET, Tumor Site: Type of Lesion: INTEGUMENTARY SYSTEM: FIBROMA, URINARY BLADDER: TRANSITIONAL CELL CARCINOMA).
As to `Oc1ccc(Cl)cc1Cl`, the carcinogen call was “inactive; negative” (Species: MOUSE, Strain/Sex: B6C3F1/FEMALE, Route: ORAL, Dose: 0, 5000, 10000 PPM IN FEED FOR 103 WK (STUDY DURATION: 104 WK), Dose: 0, 5000, 10000 PPM IN FEED FOR 103 WK (STUDY DURATION: 104 WK)); “inactive; negative” (Species: MOUSE, Strain/Sex: B6C3F1/MALE, Route: ORAL, Dose: 0, 5000, 10000 PPM IN FEED FOR 103 WK (STUDY DURATION: 104 WK), Dose: 0, 5000, 10000 PPM IN FEED FOR 103 WK (STUDY DURATION: 104 WK)); “inactive; negative” (Species: RAT, Strain/Sex: F344/FEMALE, Route: ORAL, Dose: 0, 2500, 5000 PPM IN FEED FOR 103 WK (STUDY DURATION: 104 WK), Dose: 0, 2500, 5000 PPM IN FEED FOR 103 WK (STUDY DURATION: 104 WK)); “inactive; negative” (Species: RAT, Strain/Sex: F344/MALE, Route: ORAL, Dose: 0, 5000, 10000 PPM IN FEED FOR 103 WK (STUDY DURATION: 104 WK), Dose: 0, 5000, 10000 PPM IN FEED FOR 103 WK (STUDY DURATION: 104 WK)).
For `C[C@@H]1O[C@@H]1Cl`, the carcinogen call (Species: MOUSE, Strain/Sex: ICR/FEMALE, Route: DERMAL, Dose: 10 MG IN 0.1 ML ACETONE 3/WK FOR LIFE, Tumor Site: Type of Lesion: INTEGUMENTARY SYSTEM (SKIN): PAPILLOMA, SQUAMOUS CELL CARCINOMA) was “active; positive”.
Take `OC1c2cc3ccc4ccccc4c3nc2C2OC2C1O` (stereo not drawn): the carcinogen call is “inactive; negative” (Species: MOUSE, Strain/Sex: SWISS/FEMALE, Route: INTRAPERITONEAL, Dose: 0, 1.05 UMOL GIVEN AS 150 NMOL IN 5 µL DMSO WITHIN 24 HR OF BIRTH, 300 NMOL IN 10 µL DMSO ON D 8 OF LIFE, AND 600 NMOL I) and “inactive; negative” (Species: MOUSE, Strain/Sex: SWISS/MALE, Route: INTRAPERITONEAL, Dose: 0, 1.05 UMOL GIVEN AS 150 NMOL IN 5 µL DMSO WITHIN 24 HR OF BIRTH, 300 NMOL IN 10 µL DMSO ON D 8 OF LIFE, AND 600 NMOL I).
Take `CN(CCC#N)N=O`: the carcinogen call was “active; positive” (Species: RAT, Strain/Sex: F344/FEMALE, Route: SUBCUTANEOUS, Dose: 0, 0.019 MMOL 3/WK FOR 20 WK (STUDY DURATION: 24 WK), Tumor Site: Type of Lesion: ESOPHAGUS: PAPILLOMA, NASAL CAVITY: PAPILLOMA, TONGUE: PAPILLOMA OR CARCINOMA, Tumor Site: Type of Lesion: ESOPHAGUS: PAPILLOMA, NASAL CAVITY: PAPILLOMA, TONGUE: PAPILLOMA OR CARCINOMA); “active; positive” (Species: RAT, Strain/Sex: F344/MALE, FEMALE, Route: SUBCUTANEOUS, Dose: 0, 2.13 MG IN 0.3 ML SALINE 3/WK FOR 20 WK (TOTAL DOSE 127.8 MG) (STUDY DURATION: 24 WK), Tumor Site: Type of Lesion: ESOPHAGUS: SQUAMOUS CELL PAPILLOMA, SQUAMOUS CELL CARCINOMA, TONGUE: PAPILLOMA, CARCINOMA, NASAL CAVITY: PAPILLOMA, ESTH, Tumor Site: Type of Lesion: ESOPHAGUS: SQUAMOUS CELL PAPILLOMA, SQUAMOUS CELL CARCINOMA, TONGUE: PAPILLOMA, CARCINOMA, NASAL CAVITY: PAPILLOMA, ESTH); “active; positive” (Species: RAT, Strain/Sex: F344/MALE,FEMALE, Route: SUBCUTANEOUS, Dose: 2.13 MG 3/WK FOR 20 WK (TOTAL DOSE 129 MG), Tumor Site: Type of Lesion: ESOPHAGUS: PAPILLOMA, CARCINOMA, NASAL CAVITY: PAPILLOMA, TONGUE: PAPILLOMA, CARCINOMA, Tumor Site: Type of Lesion: ESOPHAGUS: PAPILLOMA, CARCINOMA, NASAL CAVITY: PAPILLOMA, TONGUE: PAPILLOMA, CARCINOMA); “active; positive” (Species: RAT, Strain/Sex: F344/MALE, Route: MUCOUS MEMBRANE, Dose: 0, 0.3 ML OF A 15 MMOL WATER SOLUTION 1/D 3 D/WK FOR 1 WK THEN 1/D 5 D/WK FOR WK 2-4 THEN 2/D 5 D/WK FOR WK 5-6 (STUDY D, Tumor Site: Type of Lesion: NASAL CAVITY: CARCINOMA, PAPILLOMA, ADENOMA, LUNG: ADENOCARCINOMA, ADENOMA, LIVER: CARCINOMA, ADENOMA, ESOPHAGUS: PAPILL, Tumor Site: Type of Lesion: NASAL CAVITY: CARCINOMA, PAPILLOMA, ADENOMA, LUNG: ADENOCARCINOMA, ADENOMA, LIVER: CARCINOMA, ADENOMA, ESOPHAGUS: PAPILL); “active; positive” (Species: RAT, Strain/Sex: F344/MALE, Route: SUBCUTANEOUS, Dose: 0, 0.019 MMOL 3/WK FOR 20 WK (STUDY DURATION: 24 WK), Tumor Site: Type of Lesion: ESOPHAGUS: PAPILLOMA, NASAL CAVITY: PAPILLOMA, TONGUE: PAPILLOMA OR CARCINOMA, Tumor Site: Type of Lesion: ESOPHAGUS: PAPILLOMA, NASAL CAVITY: PAPILLOMA, TONGUE: PAPILLOMA OR CARCINOMA).
